Measurements from US20230174523A1, “BENZENESULFONAMIDE DERIVATIVES AS TRAP1 MODULATORS AND USES THEREOF” (Amathus Therapeutics, Inc., priority 2020, published 2023).

How the values were obtained:
[1] = target: T1, TRAP1 enzyme (Homo sapiens, UniProt Q12931); assay: ADP Glo assay of TRAP1 ATPase activity; assay type: biochemical
T1 sequence (Q12931 60-704): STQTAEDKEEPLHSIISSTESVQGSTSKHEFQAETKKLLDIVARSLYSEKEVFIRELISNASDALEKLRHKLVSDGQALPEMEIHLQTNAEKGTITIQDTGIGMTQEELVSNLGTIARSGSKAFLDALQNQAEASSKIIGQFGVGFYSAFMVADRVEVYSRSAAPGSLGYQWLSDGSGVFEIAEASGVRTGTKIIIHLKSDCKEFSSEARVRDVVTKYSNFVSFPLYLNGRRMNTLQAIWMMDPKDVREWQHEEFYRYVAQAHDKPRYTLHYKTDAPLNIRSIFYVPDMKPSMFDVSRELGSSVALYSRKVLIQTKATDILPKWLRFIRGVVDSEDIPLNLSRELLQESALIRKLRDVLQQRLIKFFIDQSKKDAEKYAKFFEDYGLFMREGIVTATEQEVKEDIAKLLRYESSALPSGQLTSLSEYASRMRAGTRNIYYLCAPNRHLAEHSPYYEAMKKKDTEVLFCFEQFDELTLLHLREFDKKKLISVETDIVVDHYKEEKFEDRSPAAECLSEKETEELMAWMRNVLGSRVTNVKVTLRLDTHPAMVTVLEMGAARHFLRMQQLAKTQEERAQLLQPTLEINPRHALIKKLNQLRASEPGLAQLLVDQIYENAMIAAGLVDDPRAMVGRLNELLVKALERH
How it was run: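 150 nM TRAP1 preincubated with compound (0.79–100 μM) 30 min at 37° C in Pipes pH 7.5 buffer (0.05 mM MgCl2, 40 mM KCl), then 20 μM ATP added for 60 min at 37° C. ADP quantified by ADP-Glo luminescence against ATP/ADP standard curve. Emax and EC50 from sigmoidal fit.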

[2] = system: mIMCD3 Pkd1−/− cells; assay: Mouse cell derived cyst assay; assay type: cell-based; conditions: PKD KO mouse cell derived cyst forming assay; FIG. 13
Experimental: Mouse cell derived cyst assays were performed as described in Booij, Tijmen H et al., SLAS discovery: advancing life sciences R & D vol. 22.8 (2017): 974-984, or as described below.
Murine inner medullary collecting duct cell line (mIMCD3 Pkd1^−/− cells) • mIMCD3 Pkd1 KO cells were seeded in 384 wells plates in extracellular matrix. • 4 days after seeding, cultures were co-exposed to treatments and stimuli (2.5 μM forskolin); • After 72 h, cultures were fixed, stained for nuclei and actin cytoskeleton and imaged with 4× magnification; and • Image analysis of the 3D stack was done using Ominer™ image analysis software.

[3] = system: primary rat TH+ dopaminergic neurons; assay: Survival, neurite network, CytC release and aSyn aggregation of TH+ dopaminergic neurons injured with MPP+; assay type: cell-based
Experimental: Rat dopaminergic neurons were cultured as described by Visanji et al., 2008. Briefly, pregnant female rat of 15 days of gestation are sacrificed using a deep anesthesia with CO2 chamber and a cervical dislocation. The midbrains obtained from 15-day-old rat embryos are dissected under a microscope. The embryonic midbrains are removed and placed in ice-cold medium of Leibovitz (L15) containing 2% of Penicillin-Streptomycin (PS) and 1% of bovine serum albumin (BSA). The ventral portion of the mesencephalic flexure, a region of the developing brain rich in dopaminergic neurons, is used for the cell preparations.
The midbrains are dissociated by trypsinisation for 20 min at 37° C. (solution at a final concentration of 0.05% trypsin and 0.02% EDTA). […] Viable cells are counted in a Neubauer cytometer using the trypan blue exclusion test. […] Six wells per condition are assessed.
For each condition, 20 pictures at 10× magnification (plate 1) or 30 pictures at 20× magnification (representing the whole well area) were automatically taken using ImageXpress®. […] The following read-outs were measured: Analysis of total number of TH neurons (TH positive neuron number), Analysis of the ROS into TH positive neurons, Analysis of caspase 3 positive TH neurons, and Analysis of total neurite network of TH positive neurons (in μm).
All values are expressed as mean+/−SEM (standard error of the mean). […]

EC50 ([1]; TRAP1 ATPase activation, 150 nM Trap1, 20 μM ATP, geometric mean, read-out: ADP GLO DRC: GeoMean EC50): 10 to 20 µM
Emax ([1]; read-out: ADP GLO DRC: Mean Emax): 160 to 199%
SMILES: Cc1nn(C)c2sc(C(=O)Nc3ccc(F)c(S(=O)(=O)Nc4ccc(Cl)cc4)c3)cc12 [Compound 705]
cyst formation [2]: preventing cyst formation
neurite network of TH+ dopaminergic neurons ([3]; injury with MPP+ (4 μM, 24 h), FIG. 8): protection of the neurite network
neurite network of TH+ dopaminergic neurons ([3]; injury with MPP+ (4 μM, 48 h), FIG. 11): protection of neurite network
